Measurements published in US20250381180A1, “METHODS OF TREATING OR PREVENTING OVERACTIVE BLADDER SYNDROME” (Purdue Pharma L.P., priority 2022, published 2025).

Key:
[1] = Urine concentrations in humans after a single oral dose; format: in vivo, human; details: LLOQ 229 nM
[2] = tested on: conscious BOO rats; assay: Cystometric parameters in conscious bladder outlet obstruction (BOO) rats; format: in vivo, rat
Procedure: Test substance effects were compared to those of the reference substance, mirabegron, marketed for overactive bladder.
• At W-6, a partial ligature of the urethra was performed. • At W-6, during 3 consecutive days, rats were treated daily with gentamycin and Ketofen® The bladder was emptied manually once a day. • From W-6 to W-1 animals were monitored and weighed once per week. • At W0 (D-2), catheters were implanted under isoflurane anesthesia. • At D0, cystometry was performed.
Appropriate amount of Cpd (IA) was weighed and dissolved in vehicle to obtain the dosing solution with the target concentration of 3 mg/mL (as free base). […]
[…] Mirabegron (from Kemprotec) was prepared fresh on the day of administration at a final concentration of 2 mg/mL (free base form). Appropriate mass of mirabegron was weighed and dissolved in vehicle (0.5% MC) at room temperature.

[3] = tested on: rhythmic bladder contractions (RBC) in anesthetized female rats; assay: Isovolumetric model: rhythmic bladder contractions (RBC), cystometry; format: in vivo, rat; details: for Inhibition time: after i.v.; for RBC amplitude, basal / RBC frequency, basal: basal period −30/0 min before i.v. administration, group mean
Source text: In rats, under isovolumetric condition, bladder distension induced rhythmic bladder contractions (RBC) (Aizawa et al, (2015) Effects of L-arginine, mirabegron, and oxybutynin on the primary bladder afferent nerve activities synchronized with reflexic, rhythmic bladder contractions in the rat. Neurourology & Urodynamics 34:368-374). This isovolumetric model allows the evaluation of compound on RBC. It is a closed system where the bladder is slowly infused through a urethral catheter with saline until the occurrence of spontaneous rhythmic bladder contractions.
Test substance effects were compared to that of the reference substance, tolterodine, an […], marketed for overactive bladder in humans.
Protocol: • Animals were anesthetized with urethane (i.p.). • Ureters were ligated and sectioned close to the kidneys. • Intravesical catheter was inserted into the bladder though the urinary meatus. • Urinary meatus was closed. • A catheter was inserted into the jugular vein for compound administration. • Bladder was filled with saline until the occurrence of RBC. • After 30 min basal period, compounds were administered as described below. • The effect of the test substances was followed by 1-hour post administration.
Rats were anesthetized with an intraperitoneal administration of urethane (1 g/kg). The ureters were ligated and sectioned close to the kidneys. A catheter (0.30 and 0.70 mm of inner and outer diameters, respectively) was inserted through the urinary meatus into the bladder before urethral ligature. Another catheter (0.58 and 0.96 mm of inner and outer diameters, respectively) was inserted into the jugular vein for intravenous (i.v.) administration.
For all group, animals were treated by i.v. route (1 mL/kg) (slow bolus) after the basal period.
The vesical catheter was connected via a T-tube to a strain gauge (to measure intra-vesical pressure) and to a syringe. Isovolumetric bladder contractions were induced by stepwise injections of physiological saline at room temperature (100 μL every 5 min) until stable RBC occurred. Vesical pressure was continuously recorded. After a 30 min control period (basal values), substances or vehicle were i.v. administered. The effects of substances were followed during 60 min after administration. At the end of the experiments, animals were sacrificed by cervical dislocation.
The following parameters were analyzed: • Amplitude of RBC (mmHg) • Frequency of RBC (number/30 min) • Time of inhibition (sec)
The % variation from the basal values were calculated for RBC frequency and amplitude.
Statistical analysis and graphs were performed using GraphPad Prism® (GraphPad Software Inc., La Jolla, CA, USA). A p value <0.05 was accepted for statistical significance.

[4] = 3 mg/kg i.v., 0-90 min entire period
[5] = 3 mg/kg i.v., 60-90 min interval period
[6] = i.g., 60-90 min interval period
[7] = 0/60 min after i.v., Cpd (IA) 3 mg/kg (n=8), tolterodine 1 mg/kg, mean
[8] = 0/60 min after i.v., Cpd (IA) 3 mg/kg, tolterodine 1 mg/kg, mean
[9] = 0/60 min after i.v., Cpd (IA) 3 mg/kg, tolterodine 1 mg/kg, mean, listed as compound of formula (IA)
[10] = listed as compound of formula (IA)
[11] = i.v., Cpd (IA) 3 mg/kg, tolterodine 1 mg/kg, vs basal
[12] = i.v., Cpd (IA) 3 mg/kg, tolterodine 1 mg/kg, vs vehicle

Urine Conc., mean ([1]; single oral dose 0.2 mg, 16 to 24 h): BCL | Urine Conc., mean ([1]; single oral dose 0.2 mg, 24 to 32 h): BCL | Urine Conc., mean ([1]; single oral dose 0.2 mg, 32 to 40 h): BCL | Urine Conc., mean ([1]; single oral dose 0.2 mg, 40 to 48 h): BCL | Urine Conc., mean ([1]; single oral dose 0.6 mg, 16 to 24 h): BCL | Urine Conc., mean ([1]; single oral dose 0.6 mg, 24 to 32 h): BCL | Urine Conc., mean ([1]; single oral dose 0.6 mg, 32 to 40 h): BCL | Urine Conc., mean ([1]; single oral dose 0.6 mg, 40 to 48 h): BCL | Urine Conc., mean ([1]; single oral dose 2 mg, 16 to 24 h): 409 nM | Urine Conc., mean ([1]; single oral dose 2 mg, 24 to 32 h): BCL | Urine Conc., mean ([1]; single oral dose 2 mg, 32 to 40 h): BCL | Urine Conc., mean ([1]; single oral dose 2 mg, 40 to 48 h): BCL | Urine Conc., mean ([1]; single oral dose 10 mg, 16 to 24 h): 1004 nM | Urine Conc., mean ([1]; single oral dose 10 mg, 40 to 48 h): BCL
SMILES: O=C(O)c1nc2ccccc2n([C@H]2C[C@H]3CCC[C@@H](C2)N3C2CC3CCCC(C3)C2)c1=O (some centres unmarked) [Cpd (IA)]
AM (mmHg or % variation), effect versus vehicle [2, 4]: not significantly modified | AM, effect versus basal [2, 4]: did not significantly modify | BC expressed in % variation from basal, effect versus vehicle [2, 4]: significantly decreased | BC expressed in mL, effect versus vehicle [2, 4]: no significant difference | NVC amplitude (mmHg and % variation), effect versus vehicle [2, 4]: not significantly modified | NVC amplitude, effect versus basal [2, 4]: did not modify | NVC frequency (NVC/min or % variation), effect versus vehicle [2, 4]: not significantly modified | NVC frequency, effect versus basal [2, 4]: did not affect | ThP expressed in mmHg, effect versus vehicle [2, 4]: not significantly modified | ThP, effect versus basal [2, 4]: no significant effect | ThP expressed in % variation from basal, effect versus vehicle ([2]; 3 mg/kg i.v., 0-90 min entire period, p=0.0504): decreased after Cpd (IA) treatment, the p value was close to the significance | AM (mmHg or % variation), effect versus vehicle [2, 5]: no effect | AM, effect versus basal [2, 5]: did not significantly modify | BC (mL and % variation), effect versus vehicle [2, 5]: no significant difference | NVC amplitude (mmHg and % variation), effect versus vehicle [2, 5]: not significantly modified | NVC amplitude, effect versus basal [2, 5]: without any effect | NVC frequency (NVC/min or % variation), effect versus vehicle [2, 5]: unaffected | NVC frequency, effect versus basal [2, 5]: no significant effect | ThP expressed in % variation from basal, effect versus vehicle [2, 5]: significantly decreased | ThP expressed in mmHg, effect versus vehicle [2, 5]: not significantly modified | ThP, effect versus basal [2, 5]: significantly decreased | BC, effect versus basal ([2]; Cpd (IA) 3 mg/kg i.v., 0-90 min entire period): did not significantly modify | BC, effect versus basal ([2]; Cpd (IA) 3 mg/kg i.v., 60-90 min interval period): neither vehicle nor Cpd (IA) had a significant effect | % of variation from basal values of BC ([2]; Cpd (IA) 30 mg/kg i.g., 0-90 min entire period, vehicle 11±6): −13±6% | AM (mmHg or % variation), effect versus vehicle ([2]; i.g., 0-90 min entire period): not significantly modified | AM, effect versus basal ([2]; i.g., 0-90 min entire period): did not significantly modify | BC expressed in % variation from basal, effect versus vehicle ([2]; i.g., 0-90 min entire period): significantly decreased | BC expressed in mL, effect versus vehicle ([2]; i.g., 0-90 min entire period): no significant difference | NVC amplitude expressed in % variation from basal, effect versus vehicle ([2]; i.g., 0-90 min entire period): remained unaffected | NVC amplitude expressed in mmHg, effect versus vehicle ([2]; i.g., 0-90 min entire period): not significantly modified | NVC amplitude, effect versus basal ([2]; i.g., 0-90 min entire period): did not modify | NVC frequency (NVC/min or % variation), effect versus vehicle ([2]; i.g., 0-90 min entire period): not significantly modified | NVC frequency, effect versus basal ([2]; i.g., 0-90 min entire period): did not affect | ThP expressed in % variation from basal, effect versus vehicle ([2]; i.g., 0-90 min entire period): significantly decreased | ThP expressed in mmHg, effect versus vehicle ([2]; i.g., 0-90 min entire period): not significantly modified | ThP, effect versus basal ([2]; i.g., 0-90 min entire period): did not modify | AM (mmHg or % variation), effect versus vehicle [2, 6]: no effect | AM, effect versus basal [2, 6]: did not significantly modify | BC expressed in % variation from basal, effect versus vehicle [2, 6]: significantly decreased | BC expressed in mL, effect versus vehicle [2, 6]: no significant difference | NVC amplitude expressed in % variation from basal, effect versus vehicle [2, 6]: not significantly modified | NVC amplitude expressed in mmHg, effect versus vehicle [2, 6]: not significantly modified | NVC amplitude, effect versus basal [2, 6]: without any effect | NVC frequency (NVC/min or % variation), effect versus vehicle [2, 6]: unaffected | NVC frequency, effect versus basal [2, 6]: did not affect | ThP expressed in % variation from basal, effect versus vehicle [2, 6]: significantly decreased | ThP expressed in mmHg, effect versus vehicle [2, 6]: not significantly modified | ThP, effect versus basal [2, 6]: significantly decreased | BC, effect versus basal ([2]; i.g., Cpd (IA) 30 mg/kg, mirabegron 10 mg/kg, 0-90 min entire period): significantly decreased | BC, effect versus basal ([2]; i.g., Cpd (IA) 30 mg/kg, mirabegron 10 mg/kg, 60-90 min interval period): significantly decreased | all other cystometric parameters (than BC and ThP), effect versus vehicle ([2]; i.v., conclusions): no effect | RBC amplitude, % variation from basal [3, 7]: 1.25% | RBC amplitude, treated period [3, 7]: 27.57 mmHg | RBC frequency, % variation from basal [3, 8]: ~88.57% | RBC frequency, treated period [3, 8]: 3.05 nb of RBC/30 min | RBC frequency, % variation from basal [3, 9]: -88.57±3.68% | RBC frequency, treated period [3, 9]: 3.05±1.02 nb of RBC/30 min | Inhibition time ([3]; Cpd (IA) 3 mg/kg, tolterodine 1 mg/kg, mean): 2860.51 s | Inhibition time ([3]; Cpd (IA) 3 mg/kg, tolterodine 1 mg/kg, mean, listed as compound of formula (IA)): 2860.51 ± 272.38 s | RBC amplitude, basal [3]: 29.49 mmHg | RBC frequency, basal [3]: 25.90 nb of RBC/30 min | RBC amplitude, basal [3, 10]: 29.49±2.46 mmHg | RBC frequency, basal [3, 10]: 25.90±1.36 nb of RBC/30 min | bladder afferent activity ([3]; conclusion of Example 1): significantly decreased | RBC amplitude, effect versus basal [3, 11]: No significant effect | RBC frequency, effect versus basal [3, 11]: significantly decreased | RBC amplitude (% variation), effect versus vehicle [3, 12]: did not significantly modify | RBC frequency (% variation), effect versus vehicle [3, 12]: significantly decreased | time of inhibition, effect versus vehicle [3, 12]: significantly increased
